Assay results reported in patent publication US8420815B1, “Anti-cancer agents based on N-acyl-2, 3-dihydro-1H-pyrrolo[2,3-b]quinoline derivatives and a method of making” (U.S. Department of Energy, priority 2010, dated 2013).

Tested on: DU-145 cells
Experiment: Cell proliferation assay (Alamar-Blue), proliferation inhibition of DU-145 cells
Format: cell-based
Conditions: Homo sapiens, 72 h, 3 days incubation, Alamar-Blue fluorescence
Experimental: Protocol for Cell Proliferation Assay:
This homogeneous assay involves simply adding a single reagent, the Alamar-Blue, to the cell culture and measuring the fluorescence intensity (excitation wavelength=530 nm, emission wavelength=590 nm) after an incubation step. The Alamar-Blue reagent utilizes the redox dye resazurin, which is not fluorescent, but upon reduction by metabolically active cells is converted into a highly fluorescent product (resorufin). A decrease in fluorescence in the presence of a test compound indicates reduced proliferation. This change in signal is proportional to the number of viable cells and used as a measure of relative cytotoxicity. Therefore, the fluorescence intensity observed in this assay is a true measure of the viable proliferative cells.
• 2 mM stock of Paclitaxel in DMSO. • DMSO (Panreac, Cat. number 141954.1611) • Resazurin sodium salt (Sigma, R-7071). 50 mM stock in DMSO. Equipment • Biomek FX Laboratory Automated Workstation (Beckman Coulter Inc., Fullerton, Calif.) • CO2 incubator (VWR Science, USA) • Bright line Hemacytometer (Z359629, Sigma, IL, USA) Materials • 384-deep well plates (Greiner, N^o 781270) • 384-well optical bottom tissue culture plates (Greiner, No. 82051-282) Propagation CONDITIONS: 37° C., air 95%; carbon dioxide (CO2) 5%, humidified atmosphere. Subculturing: • Cells were grown in 175 cm^2 flasks to 90-100% of confluency. • Culture medium (RPMI-1640 (Paneco, C310)+10% fetal bovine serum (FBS)) was aspirated and cell layer was briefly rinsed with 0.53 mM EDTA (ethylenediaminetetraacetic acid) solution to remove all traces of serum. • 2 ml of 0.2% trypsin/0.53 mM EDTA solution was added to cells. • Flasks were returned to incubator for 5 min to allow cells detachment. • Add 6.0 ml of culture medium. • Single cell suspension was created by gently pipetting. • Cells are counted using a Hematocytometer and suspension with desirable cell concentration is prepared.
To test proliferation inhibition DU-145 cells were plated in 384-well plate at the density 4000 cells/well. Next day 4 mM solutions of compounds in DMSO were diluted 100 times in medium and added to cells to final concentration 20 uM (40 ul of cells+40 ul of compounds). Taxol at final concentration 1 uM was used as positive control. Cells were incubated with compounds for 3 days. After that Alamar-Blue was added to cells to final concentration of 50 uM. After incubation for 4-6 hours at 37° C., fluorescence in plate was read using fluorescence plate reader Wallac 1420 (530 nm excitation filter, 590 nm emission filter). Proliferation inhibition was calculated using formula: % INH=100*((Fnegative−compound signal)/(Fnegative−Fpositive)), • Fnegative—DMSO was added to cells (viable cells) • Fpositive—taxol (1 uM) was added to cells (number of cells at the first day of incubation)

Row | IC50 [µM] | Compound
1 | 16.1 | COc1ccccc1C(=O)N1CCc2cc3cccc(C)c3nc21 [Example 6, (2-methoxyphenyl)(8-methyl-2,3-dihydro-1H-pyrrolo[2,3-b]quinolin-1-yl)methanone]
2 | 3.62 | COc1ccccc1C(=O)N1CCc2cc3ccccc3nc21 [Example 4, 2,3-dihydro-1H-pyrrolo[2,3-b]quinolin-1-yl(2-methoxyphenyl)methanone]
3 | 0.613 | COc1cccc(C(=O)N2CCc3cc4cc(C)ccc4nc32)c1 [Example 3, (3-methoxyphenyl)(6-methyl-2,3-dihydro-1H-pyrrolo[2,3-b]quinolin-1-yl)methanone]
4 | 0.114 | COc1cc(C(=O)N2CCc3cc4ccccc4nc32)cc(OC)c1OC [Example 1, 2,3-dihydro-1H-pyrrolo[2,3-b]quinolin-1-yl(3,4,5-trimethoxyphenyl)methanone]
5 | 10.3 | Cc1ccc(C(=O)N2CCC=c3cc(C)c4c(c32)C=CN=4)cc1 [Example 5, (6-methyl-2,3-dihydro-1H-pyrrolo[2,3-h]quinolin-1-yl)(4-methylphenyl)methanone]
6 | 17.2 | CC1=Cc2c3c(ccc2=N1)=CCCN3C(=O)c1ccccc1C [Example 7, (8-methyl-2,3-dihydro-1H-pyrrolo[2,3-h]quinolin-1-yl)(2-methylphenyl)methanone]
7 | 15000 | Cc1cccc2cc3c(nc12)N(C(=O)c1ccccc1Br)CC3 [Example 11, (2-bromophenyl)(8-methyl-2,3-dihydro-1H-pyrrolo[2,3-b]quinolin-1-yl)methanone]
8 | 4400 | CC1=Cc2c3c(ccc2=N1)=CCCN3C(=O)c1cccc(F)c1 [Example 10, (3-fluorophenyl)(8-methyl-2,3-dihydro-1H-pyrrolo[2,3-h]quinolin-1-yl)methanone]
9 | 238 | O=C(c1ccccc1Br)N1CCc2cc3ccccc3nc21 [Example 9, (2-bromophenyl)(2,3-dihydro-1H-pyrrolo[2,3-b]quinolin-1-yl)methanone]
10 | 134 | Cc1cccc2cc3c(nc12)N(C(=O)c1ccccc1F)CC3 [Example 8, (2-fluorophenyl)(8-methyl-2,3-dihydro-1H-pyrrolo[2,3-b]quinolin-1-yl)methanone]
11 | 0.183 | COc1ccc(C(=O)N2CCc3cc4cc(C)ccc4nc32)cc1OC [Example 2, (3,4-dimethoxyphenyl)(6-methyl-2,3-dihydro-1H-pyrrolo[2,3-b]quinolin-1-yl)methanone]
